Experimental data: US9884833B2, “Crystalline forms of neurotrophin mimetic compounds and their salts” (Pharmatrophix, Inc., priority 2012, dated 2018)

What was measured:
Format in all cases: physicochemical
[1] = Visual solubility measurement in various solvents
Procedure: About 100 mg of disulfate starting material was placed into each of 26 vials. Solvents were added and the vials were stirred for 30 minutes, followed by visual observation for remaining solids. Additional solvent was incrementally added until the solids were dissolved, or a maximum volume of solvent was added and the experiment was terminated. This solubility data was used in designing experiments, selecting the solvents, anti-solvents for crystallization and slurry experiments, sample consumption, etc.

[2] = Hygroscopicity by dynamic vapor sorption (DVS); details: for water uptake: 0-55% RH; for water uptake (sorption maximum): 95% RH
Procedure: Samples were analyzed using an automated dynamic vapor sorption analyzer. The sample (about 1-10 mg) was dried in the instrument 0% RH for 6 hours. The samples were subjected to 0 to 95% RH back to 5% RH at 25° C. in 5% RH steps.
The water content of the as received material was determined by Karl Fischer to be approximately 0.3 wt %. The moisture sorption-desorption isotherms (FIGS. 3A and 3B) were collected using dynamic vapor sorption (DVS) analysis. […] A hydrate may also form near 60% RH.
FIGS. 3A and 3B show the moisture sorption-desorption isotherm and the kinetic plots for Form A. This sample may undergo hydrate formation ≧60% RH, although the shape of the isotherm is less than ideal.
To understand this further a fresh sample of starting material was staged at 60% RH in DVS for about 3 hours allowing sample to gain about 4 wt %. […] FIG. 21.

[3] = Static vapor sorption studies in humidity chambers; details: for weight gain by TGA: after 40 days
From the text: Static vapor sorption studies were done in hermetic humidity chambers using saturated salts, or environmental humidity chambers to control the temperature and humidity. Data collected during dynamic vapor sorption studies often are not at theiniodynamic equilibrium. To gain a better understanding of the water uptake and the critical humidity level of the API, samples of the starting material (Form A) were monitored in static humidity chambers to allow the sample to equilibrate with aerial moisture.
In these studies, water vapor sorption was determined gravimetrically (or by Thermogravimetric analysis) by storing samples in open aluminum dishes. Samples were stored at 8 different humidities (23, 33, 43, 53, 60, 69, 75 and 84% RH) at ambient temperature. A few hundred milligrams of Form A was staged at each humidity condition.
The samples were examined periodically either by recording the weight change or by monitoring the water content by Karl Fischer or TGA, and/or XRD pattern. […] The samples stored at humidities higher than 60% RH deliquesced after 10 days.

[4] = Non-competitive slurry experiments (solid form stability)
From the text: In addition to the solvent recrystallization experiments, non-competitive slurry experiments were perfoi ined to search for new solid state forms. These experiments rely on solubility differences of different polymorphic forms (if the compound is polymorphic). […] Essentially, when a solid is mixed with solvent as slurry, a saturated solution eventually results. The solution is saturated with respect to the polymorphic form dissolved.
In addition, noncompetitive slurry experiments are often useful in identifying solvents that form solvates with the compound.
The slurry experiments were performed by exposing excess “starting” material (Form A) to neat (single) and binary solvent mixtures and agitating the resulting suspensions for several days at ambient temperature. The solids were vacuum filtered and analyzed by XRD to determine the resulting form. To avoid possible desolvation or physical change after isolation, the samples were not further dried before X-ray analysis.

[5] = DVS sorption, 25° C., listed as 2-amino-3-methyl-N-(2-morpholinoethyl)-pentanamide disulfate
[6] = stored at 60% RH, then dried at ~45° C. under vacuum for about 15 days

With “2-amino-3-methyl-N-(2-morpholinoethyl)-pentanamide disulfate [Form A]” the “Approx. Solubility” value ([1]; 1-butanol) was “≦1.67 mg/mL”, the “Approx. Solubility” value ([1]; 1-propanol) was “≦1.67 mg/mL” and the “Approx. Solubility” value ([1]; 2-butanol) was “≦1.67 mg/mL”. For the same substance, the “Approx. Solubility” value ([1]; 2-propanol) was “≦1.67 mg/mL”, the “Approx. Solubility” value ([1]; acetone) was “≦1.67 mg/mL” and the “Approx. Solubility” value ([1]; acetonitrile) was “≦1.67 mg/mL”. For the same substance, the “Approx. Solubility” value ([1]; butylamine) was “≦1.67 mg/mL”, the “Approx. Solubility” value ([1]; chloroform) was “≦1.67 mg/mL” and the “Approx. Solubility” value ([1]; dichloromethane) was “≦1.67 mg/mL”. For the same substance, the “Approx. Solubility” value ([1]; diisopropylamine) was “≦1.67 mg/mL”, the “Approx. Solubility” value ([1]; dimethylacetamide (DMA)) was “≦1.67 mg/mL” and the “Approx. Solubility” value ([1]; dimethylformamide (DMF)) was ~1670 µg/mL. The “Approx. Solubility” value ([1]; ethanol) was “≧50 mg/mL”, the “Approx. Solubility” value ([1]; ethyl acetate (EtOAc)) was “≦1.67 mg/mL” and the “Approx. Solubility” value ([1]; heptane) was “≦1.67 mg/mL”. The “Approx. Solubility” value ([1]; isopropyl acetate) was “≦1.67 mg/mL”, the “Approx. Solubility” value ([1]; isopropyl ether) was “≦1.67 mg/mL” and the “Approx. Solubility” value ([1]; methanol, stirred 30 minutes) was “≧100 mg/mL”. For the same substance, the “Approx. Solubility” value ([1]; methyl ethyl ketone (MEK)) was “≦1.67 mg/mL”, the “Approx. Solubility” value ([1]; methyl-t-butyl ether (MTBE)) was “≦1.67 mg/mL” and the “Approx. Solubility” value ([1]; nitromethane) was “≦1.67 mg/mL”. The “Approx. Solubility” value ([1]; pyridine) was “≦1.67 mg/mL”, the “Approx. Solubility” value ([1]; tetrahydrofuran (THF)) was “≦1.67 mg/mL” and the “Approx. Solubility” value ([1]; toluene) was “≦1.67 mg/mL”. The “Approx. Solubility” value ([1]; trifluoroethanol) was “≧50 mg/mL”, the “Approx. Solubility” value ([1]; water) was “≧100 mg/mL” and the “water remaining in desorption phase” value ([2]; DVS desorption, 65% RH, 25° C.) was ~23 wt %. For the same substance, the “mass above original value at end of desorption cycle” value ([2]; DVS desorption) was ~4 wt %, the “mass above original value at end of desorption cycle” value ([2]; DVS desorption, listed as 2-amino-3-methyl-N-(2-morpholinoethyl)-pentanamide disulfate) was “about 4 wt %” and the water uptake ([2]; DVS sorption, 25° C.) was 2 wt %. For the same substance, the water uptake [2, 5] was “did not sorb much water”, the “water uptake (total)” value ([2]; DVS sorption, 65% RH, 25° C.) was ~23 wt % and the “water uptake (sorption maximum)” value ([2]; DVS sorption, 25° C.) was “approximately 225 wt %”. The “water uptake (sorption maximum)” value [2, 5] was “up to 225 wt %”, the “behaviour at high humidity” value ([2]; DVS, high humidity, followed by glass formation upon evaporation) was “Apparent deliquescence” and the weight gain ([2]; fresh sample staged at 60% RH in DVS for about 3 hours) was “about 4 wt %”. The “relative humidity at which hydrate forms” value ([2]; from DVS isotherm, 25° C.) was ~60 % RH, the “weight gain by TGA” value ([3]; stored at 43% RH) was “approximately 1.0 wt %” and the “weight gain by TGA” value ([3]; stored at 53% RH) was ~1.3 wt %. For the same substance, the state after storage ([3]; stored at 60% RH, after 27 days) was “mostly deliquesced”, the weight gain ([3]; stored at 60% RH, in 20 days) was “approximately 6 wt %” and the “XRD after storage and drying” value [3, 6] was “identical to starting material”. For the same substance, the “weight by TGA after drying” value [3, 6] was “approximately 3.3 wt %”, the state after storage ([3]; stored at humidities higher than 60% RH, ambient temperature, after 10 days) was “deliquesced” and the weight gain ([3]; stored at humidities lower than 43% RH, ambient temperature, after 15 days) was “minimaUno weight gain”. For the same substance, the “Final Form” value ([4]; slurry in DMA, 27 days, ambient temperature, by XRD) was “monosulfate”, the “Final Form” value ([4]; slurry in DMF/2-propanol (1/1), 19 days) was “monosulfate” and the “Final Form” value ([4]; slurry in DMF/2-propanol (1/2), 19 days) was “monosulfate”. For the same substance, the “Final Form” value ([4]; slurry in DMF/2-propanol (2/1), 19 days) was “monosulfate”, the “Final Form” value ([4]; slurry in DMF/acetone (1/1), 19 days) was “monosulfate” and the “Final Form” value ([4]; slurry in DMF/acetone (1/2), 19 days) was “monosulfate”. The “Final Form” value ([4]; slurry in DMF/acetone (2/1), 19 days) was “monosulfate”, the “Final Form” value ([4]; slurry in DMF/heptane (1/1), 19 days) was “monosulfate” and the “Final Form” value ([4]; slurry in DMF/heptane (1/2), 19 days) was “monosulfate”. The “Final Form” value ([4]; slurry in DMF/heptane (2/1), 19 days) was “monosulfate” and the “Final Form” value ([4]; slurry in water, duration n/a) was “all dissolved”.
